Values quoted from earlier work in US4370313A, “Nitrofurantoin dosage form” (Eaton Laboratories, Inc., priority 1981, dated 1983).

## O=C1CN(/N=C/c2ccc([N+](=O)[O-])o2)C(=O)N1 [nitrofurantoin]
  preferred absorption in a limited segment of the human gastrointestinal tract: duodenum
Immediately available dose, conventional dosage forms, human
  expected urinary level peaks: 2 to 3 h
